Earlier results, collected in patent publication US20180206518A1, “METHOD OF MAKING CANNABIS OIL H[…] E[…] RELATED CANNABINOID COMPOSITIONS” (priority 2016, published 2018).

Settings: edible cannabis products, depending on liver function

## CCCCCc1cc(O)c2c(c1)OC(C)(C)[C@@H]1CCC(C)=CC21 (stereo partly shown) [THC, Δ9-tetrahydrocannabinol]
  THC able to be metabolized: 2-6%
